These results are taken from article PMC5684193 (2017).

For experiment [1], the system named is CBA-0 (DNA, aptamer) CCCCCTGGGTCGGGAGGGAAGGGGGTTGGGGGTGCGG
As to the kind of experiment: ITC. As to conditions: 140 mM NaCl, 2.5 mM KCl, K/Na phosphate (PBS), 2.5 mM MgCl2; PBS with MgCl2, pH 7.4, 25 °C.

Experiment [2] deals with CBA-1 (DNA, aptamer) CCCCCTGGGTCGGGAGGGAAGGGGGTTGGGGGTGCGGG
As to the kind of experiment: ITC. Conditions: 140 mM NaCl, 2.5 mM KCl, K/Na phosphate (PBS), 2.5 mM MgCl2; PBS with MgCl2, pH 7.4, 25 °C.

Experiment [3] relates to CBA-1-GGC (DNA, aptamer) CCCCCCCCTGGGTCGGGAGGGAAGGGGGGGGTTGGGGGGGGTGCGGG
As to the kind of experiment: ITC. As to conditions: 140 mM NaCl, 2.5 mM KCl, K/Na phosphate (PBS), 2.5 mM MgCl2; PBS with MgCl2, pH 7.4, 25 °C.

Experiment [4] relates to CBA-1-AAT (DNA, aptamer) TTTCCCCCTGGGTCGGGAGGGAAGGGGGAAATTAAAGGGGGTGCGGG
As to the kind of experiment: ITC. As to conditions: 140 mM NaCl, 2.5 mM KCl, K/Na phosphate (PBS), 2.5 mM MgCl2; PBS with MgCl2, pH 7.4, 25 °C.

The subject of experiment [5] is CBA-1-GGC-4G4 (DNA, aptamer) CCCCCCCCTGGGGTCGGGGAGGGGAAGGGGGGGGTTGGGGGGGGTGCGGGG
Description: ITC. As to conditions: 140 mM NaCl, 2.5 mM KCl, K/Na phosphate (PBS), 2.5 mM MgCl2; PBS with MgCl2, pH 7.4, 25 °C.

The test system of experiment [6] is CBA-1-G14A (DNA, aptamer) CCCCCTGGGTCGGAAGGGAAGGGGGTTGGGGGTGCGGG
Description: ITC. As to conditions: 140 mM NaCl, 2.5 mM KCl, K/Na phosphate (PBS), 2.5 mM MgCl2; PBS with MgCl2, pH 7.4, 25 °C.

Experiment [7] has as its system CBA-1-G34T (DNA, aptamer) CCCCCTGGGTCGGGAGGGAAGGGGGTTGGGGGTTCGGG
Description: ITC. Conditions: 140 mM NaCl, 2.5 mM KCl, K/Na phosphate (PBS), 2.5 mM MgCl2; PBS with MgCl2, pH 7.4, 25 °C.

Experiment [8] has as its system CBA-1-strand1 (DNA, aptamer) AAAAATGGGTCGGGAGGGAAGGGGGTTGGGGGTGCGGG
Description: ITC. Conditions: 140 mM NaCl, 2.5 mM KCl, K/Na phosphate (PBS), 2.5 mM MgCl2; PBS with MgCl2, pH 7.4, 25 °C; 250 µM codeine in syringe.

Experiment [9] deals with CBA-1-strand3 (DNA, aptamer) CCCCCTGGGTCGGGAGGGAAGGGGGTTTATATTGCGGG
As to the kind of experiment: ITC. Conditions: 140 mM NaCl, 2.5 mM KCl, K/Na phosphate (PBS), 2.5 mM MgCl2; PBS with MgCl2, pH 7.4, 25 °C; 250 µM codeine in syringe.

Experiment [10] deals with CBA-1-strand21 (DNA, aptamer) GGGGGTGGGTCGGGAGGGAACCCCCTTGGGGGTGCGGG
As to the kind of experiment: ITC. Conditions: 140 mM NaCl, 2.5 mM KCl, K/Na phosphate (PBS), 2.5 mM MgCl2; PBS with MgCl2, pH 7.4, 25 °C; 250 µM codeine in syringe.

The subject of experiment [11] is CBA-1-3G3T (DNA, aptamer) CCCCCTTTTTCTTTATTTAAGGGGGTTGGGGGTGCTTT
As to the kind of experiment: ITC. As to conditions: 140 mM NaCl, 2.5 mM KCl, K/Na phosphate (PBS), 2.5 mM MgCl2; PBS with MgCl2, pH 7.4, 25 °C; 250 µM codeine in syringe.

Experiment [12] deals with CBA-1-G34R (DNA, aptamer) CCCCCTGGGTCGGGAGGGAAGGGGGTTGGGGGTCGGG
As to the kind of experiment: ITC. Conditions: 140 mM NaCl, 2.5 mM KCl, K/Na phosphate (PBS), 2.5 mM MgCl2; PBS with MgCl2, pH 7.4, 25 °C; 250 µM codeine in syringe.

In experiment [13] the test system is CBA-1-G34C35R (DNA, aptamer) CCCCCTGGGTCGGGAGGGAAGGGGGTTGGGGGTGGG
Description: ITC. As to conditions: 140 mM NaCl, 2.5 mM KCl, K/Na phosphate (PBS), 2.5 mM MgCl2; PBS with MgCl2, pH 7.4, 25 °C; 250 µM codeine in syringe.

The test system of experiment [14] is CBA-1-1/CBA-1-2 (DNA, aptamer) CCCCCTGGGTCGGGAGGGAAGGGGGT/TGGGGGTGCGGG
Description: 1H NMR. As to conditions: 140 mM NaCl, 2.5 mM KCl, K/Na phosphate (PBS), 10% D2O, 25 °C, 200 µM DNA, 400 µM codeine.

The test system of experiment [15] is FAM-labeled CBA-0 (DNA, aptamer) CCCCCTGGGTCGGGAGGGAAGGGGGTTGGGGGTGCGG
As to the kind of experiment: DMS footprinting. Conditions: 140 mM NaCl, 2.5 mM KCl, K/Na phosphate (PBS), 2.5 mM MgCl2; binding buffer, room temperature.

Experiment [16] deals with FAM-labeled CBA-1 (DNA, aptamer) CCCCCTGGGTCGGGAGGGAAGGGGGTTGGGGGTGCGGG
Description: DMS footprinting. Conditions: 140 mM NaCl, 2.5 mM KCl, K/Na phosphate (PBS), 2.5 mM MgCl2; binding buffer, room temperature.

Experiment [17] deals with CBA-1 (DNA, aptamer) CCCCCTGGGTCGGGAGGGAAGGGGGTTGGGGGTGCGGG
As to the kind of experiment: UV melting at 265 nm. Conditions: 140 mM NaCl, 2.5 mM KCl, K/Na phosphate (PBS), 2.5 mM MgCl2; PBS with MgCl2, pH 7.4; 4 µM DNA, 8 µM codeine.

Experiment [18] relates to CBA-1-1/CBA-1-2 (DNA, aptamer) CCCCCTGGGTCGGGAGGGAAGGGGGT/TGGGGGTGCGGG
As to the kind of experiment: UV melting at 265 nm. As to conditions: 140 mM NaCl, 2.5 mM KCl, K/Na phosphate (PBS), 2.5 mM MgCl2; PBS with MgCl2, pH 7.4.

Experiment [19] concerns CBA-1-A14AP (DNA, aptamer, 2-aminopurine at 14) CCCCCTGGGTCGGGAGGGAAGGGGGTTGGGGGTGCGGG
Description: 2-aminopurine fluorescence quenching. Conditions: 140 mM NaCl, 2.5 mM KCl, K/Na phosphate (PBS), 2.5 mM MgCl2; 1 µM codeine, 25 °C.

The test system of experiment [20] is CBA-1-A15AP (DNA, aptamer, 2-aminopurine at 15) CCCCCTGGGTCGGGAGGGAAGGGGGTTGGGGGTGCGGG
As to the kind of experiment: 2-aminopurine fluorescence quenching. As to conditions: 140 mM NaCl, 2.5 mM KCl, K/Na phosphate (PBS), 2.5 mM MgCl2; 1 µM codeine, 25 °C.

Experiment [21] has as its system CBA-1-A20AP (DNA, aptamer, 2-aminopurine at 20) CCCCCTGGGTCGGGAGGGAAGGGGGTTGGGGGTGCGGG
Description: 2-aminopurine fluorescence quenching. Conditions: 140 mM NaCl, 2.5 mM KCl, K/Na phosphate (PBS), 2.5 mM MgCl2; 1 µM codeine, 25 °C.

What is called Kd is the constant that tells how readily two partners part at equilibrium. Read a high Kd as lower affinity. On to `COc1ccc2c3c1O[C@H]1[C@@H](O)C=C[C@H]4[C@@H](C2)N(C)CC[C@@]341`, for which the Kd in [1] is 250 ± 80 nM; in experiment [2], 70 ± 10 nM; in experiment [3], 50 ± 20 nM; in experiment [4], 70 ± 30 nM; in experiment [5] it was 300 ± 170 nM. Besides, the binding entry in experiment [6] is “yes”; in experiment [7], “weak”; in [8], “no”; in [9], “no”; in experiment [10], “no”; in experiment [11] it was “no”. The binding result was “no” in experiment [12]; “no” in experiment [13]; “yes” in experiment [14]; “yes” in experiment [15]; “yes” in experiment [16]; “yes” in experiment [17]. The binding entry in [19], in experiment [20] and in experiment [21] was “yes” each time. In experiment [18], the “∆Tm” value is ~ 4 °C.
